2 molecules from PMC8991199, “Promiscuity mapping of the S100 protein family using a high-throughput holdup assay” (Scientific Reports, 2022) can be followed below.

A value given as a limit tells only on which side of the number the result lay.

Common to all, as to type: binding
One assay concerns the target T1, S100G (Homo sapiens, UniProt P29377).
T1 sequence (P29377 2-79): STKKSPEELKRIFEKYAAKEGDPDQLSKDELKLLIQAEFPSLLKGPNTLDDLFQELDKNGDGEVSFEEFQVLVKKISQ
Briefly: direct fluorescence polarization (FP), S100G. Conditions: 50 nM labeled foldamer, 20 mM HEPES pH 7.5, 150 mM NaCl, 1 mM CaCl2, 0.5 mM TCEP, 0.01% Tween20, quadratic fit, mean ± SEM, three technical repeats, threshold 1 mM. How it is done:
(§1) HTP (and also low-throughput) measurements generally need to be validated by an orthogonal approach to eliminate experimental artifacts. […] This way, we chose WL, IF, WW, YF, IL, VL, TW, RF, RR, TI, TM, and after resynthesizing with a fluorescent label at the C-terminus (Figs. S15–S26, Table S1), the S100ome was tested against the labeled foldamers by direct fluorescence polarization (FP) (Fig. 3A). In this assay, the association of the fluorescently labeled foldamer and the S100 protein of interest is monitored, through the change in polarization of the emitted light by the fluorophore upon the binding event. In direct FP, the presence of the fluorophore might change the binding affinity of some foldamers. […] Nevertheless, we assumed that the fluorophore would affect all foldamers that target the same binding site to the same degree, because the foldamer scaffold is rigid. Defining the threshold of detection at the dissociation constant of 1 mM, we identified 87 interactions between the selected foldamer fragments and the S100ome out of 220 possible interactions (Table 1, Fig. S4-14).
(§2) Briefly, S100 proteins were cloned into a modified pET15b vector with a TEV protease cleavable N-terminal His6-tag and expressed in Escherichia coli BL21 (DE3) cells, followed by Ni^2+-affinity chromatography. For HU assay, S100 proteins were further purified by either hydrophobic interaction chromatography or ion exchange chromatography without the cleavage of the N-terminal His6-tag applying standard conditions. For direct FP measurements, the N-terminal His6-tag was cleaved, and the S100 proteins were purified by hydrophobic interaction chromatography, ion exchange chromatography or size exclusion chromatography. The quality of the recombinant proteins was checked by SDS-PAGE analysis in all cases. The concentration of the recombinant S100 proteins was determined by UV spectrophotometry using the absorbance of Tyr and Trp residues.
(§3) In direct fluorescence polarization assays, S100 proteins were diluted in a buffer containing 50 nM labeled foldamer, 20 mM HEPES pH 7.5, 150 mM NaCl, 1 mM CaCl2, 0.5 mM TCEP and 0.01% Tween20. The dilution series (50 µl) were divided into three technical repeats and transferred (15 µl) to a 384-well microplate. In competitive fluorescence polarization assays, the buffer applied in direct measurements was supplemented with the S100 protein of interest to reach a saturation of 60–80%. This mixture was titrated with the competitor (i.e. the unlabeled peptide). Fluorescence polarization was measured in 8 different S100 concentrations (one of which contained no S100 protein) on a Synergy H4 plate reader using 485 ± 20 nm and 528 ± 20 nm band-pass filters for excitation and emission, respectively. The Kd values were obtained by fitting the data from the FP measurements with the python-based ProFit software using quadratic and competitive binding equation for direct and competitive FP, respectively. The detection threshold was based on two parameters. First, we rejected all fitted dissociation constants above 1 mM.
For orientation: Fluorescence polarisation rises when a labelled molecule tumbles more slowly, as on binding a larger partner.

The target of the next assay is T2, S100A16 (Homo sapiens, UniProt Q96FQ6).
T2 sequence (Q96FQ6 1-103): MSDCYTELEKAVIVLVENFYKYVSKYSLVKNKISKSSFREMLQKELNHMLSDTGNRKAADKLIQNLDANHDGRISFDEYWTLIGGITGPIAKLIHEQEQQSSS
Kind of assay: direct fluorescence polarization (FP), S100A16. Conditions: S100A16, 50 nM labeled foldamer, 20 mM HEPES pH 7.5, 150 mM NaCl, 1 mM CaCl2, 0.5 mM TCEP, 0.01% Tween20, quadratic fit, mean ± SEM, three technical repeats, threshold 1 mM. How it is done:
as §1, §2, §3

The target in another assay is T3, S100A3 (Homo sapiens, UniProt P33764).
T3 sequence (P33764 1-101): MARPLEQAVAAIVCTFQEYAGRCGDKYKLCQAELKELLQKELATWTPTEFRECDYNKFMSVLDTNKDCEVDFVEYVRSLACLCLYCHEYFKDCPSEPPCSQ
Kind of assay: direct fluorescence polarization (FP), S100A3. The following applies: S100A3, 50 nM labeled foldamer, 20 mM HEPES pH 7.5, 150 mM NaCl, 1 mM CaCl2, 0.5 mM TCEP, 0.01% Tween20, quadratic fit, mean ± SEM, three technical repeats, threshold 1 mM. The protocol:
as §1, §2, §3

The next assay addresses T4, S100A9 (Homo sapiens, UniProt P06702).
T4 sequence (P06702 1-114): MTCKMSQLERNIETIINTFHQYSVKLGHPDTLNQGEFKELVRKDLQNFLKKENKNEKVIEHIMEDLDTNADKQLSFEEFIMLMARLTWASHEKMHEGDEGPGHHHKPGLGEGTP
Briefly: direct fluorescence polarization (FP), S100A9. Conditions: S100A9, 50 nM labeled foldamer, 20 mM HEPES pH 7.5, 150 mM NaCl, 1 mM CaCl2, 0.5 mM TCEP, 0.01% Tween20, quadratic fit, mean ± SEM, three technical repeats, threshold 1 mM. How it is done: as §1, §2, §3

In a further assay the target is S100A10 (Homo sapiens, UniProt P60903). Briefly: direct fluorescence polarization (FP), S100A10. The following applies: S100A10, 50 nM labeled foldamer, 20 mM HEPES pH 7.5, 150 mM NaCl, 1 mM CaCl2, 0.5 mM TCEP, 0.01% Tween20, quadratic fit, mean ± SEM, three technical repeats, threshold 1 mM.
Source text: (§4) HTP (and also low-throughput) measurements generally need to be validated by an orthogonal approach to eliminate experimental artifacts. […] In this assay, the association of the fluorescently labeled foldamer and the S100 protein of interest is monitored, through the change in polarization of the emitted light by the fluorophore upon the binding event. In direct FP, the presence of the fluorophore might change the binding affinity of some foldamers. […] Nevertheless, we assumed that the fluorophore would affect all foldamers that target the same binding site to the same degree, because the foldamer scaffold is rigid.
as §2, §3

Another assay concerns the target T5, S100Z (Homo sapiens, UniProt Q8WXG8).
T5 sequence (Q8WXG8 1-99): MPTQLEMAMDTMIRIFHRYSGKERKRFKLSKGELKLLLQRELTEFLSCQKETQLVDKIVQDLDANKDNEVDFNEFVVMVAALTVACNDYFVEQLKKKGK
Kind of assay: direct fluorescence polarization (FP), S100Z. The following applies: 50 nM labeled foldamer, 20 mM HEPES pH 7.5, 150 mM NaCl, 1 mM CaCl2, 0.5 mM TCEP, 0.01% Tween20, quadratic fit, mean ± SEM, three technical repeats, threshold 1 mM.
Source text: as §4, §2, §3

The next assay deals with T6, S100B (Homo sapiens, UniProt P04271).
T6 sequence (P04271 1-92): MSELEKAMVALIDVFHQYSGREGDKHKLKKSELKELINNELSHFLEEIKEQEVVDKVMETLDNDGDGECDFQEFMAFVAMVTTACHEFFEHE
Briefly: direct fluorescence polarization (FP), S100B. Conditions: 50 nM labeled foldamer, 20 mM HEPES pH 7.5, 150 mM NaCl, 1 mM CaCl2, 0.5 mM TCEP, 0.01% Tween20, quadratic fit, mean ± SEM, three technical repeats, threshold 1 mM. How it is done: as §1, §2, §3

S100A10, sequence (P60903 whole entry): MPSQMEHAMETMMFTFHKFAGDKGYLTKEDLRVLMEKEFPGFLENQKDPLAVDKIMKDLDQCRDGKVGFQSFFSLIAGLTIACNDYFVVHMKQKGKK

Consider `NC(=O)[C@H](CCCCNC(=O)c1ccc2c(c1)C1(OC2=O)c2ccc(O)cc2Oc2cc(O)ccc21)NC(=O)CNC(=O)[C@H]1CCCC[C@@H]1NC(=O)C[C@H](Cc1ccccc1)NC(=O)[C@H]1CCCC[C@@H]1NC(=O)[C@H]1CCCC[C@@H]1NC(=O)C[C@H](Cc1ccc(O)cc1)NC(=O)[C@H]1CCCC[C@@H]1N` [fYF], for which the Kd (as a rule, the concentration at which binding is half-saturated) is > 1000 µM on S100G; > 1000 µM at S100A16; > 1000 µM on S100A3; > 1000 µM at S100A9; 70 ± 3.5 µM at S100A10; > 1000 µM at S100Z. For the same molecule, the Kd on S100B was found to be 28 ± 1.7 µM.

With `CC[C@H](C)[C@@H](CC(=O)N[C@H]1CCCC[C@@H]1C(=O)N[C@H]1CCCC[C@@H]1C(=O)N[C@H](CC(=O)N[C@H]1CCCC[C@@H]1C(=O)NCC(=O)N[C@@H](CCCCNC(=O)c1ccc2c(c1)C1(OC2=O)c2ccc(O)cc2Oc2cc(O)ccc21)C(N)=O)CC(C)C)NC(=O)[C@H]1CCCC[C@@H]1N` [fIL], the Kd is > 1000 µM at S100G; > 1000 µM on S100A16; > 1000 µM at S100A3; > 1000 µM at S100A9; 72 ± 1.6 µM at S100A10; > 1000 µM on S100Z. In addition, the Kd at S100B stood at 63 ± 4.4 µM.
